From the NIST ThermoML archive (doi:10.1021/acs.jced.5b00303)

Settings: Pendant drop shape

CCCCCCCCn1cc[n+](C)c1.N#CC(=C=[N-])C#N [1-methyl-3-octylimidazolium tricyanomethanide]
Settings | surface tension liquid-gas [mN/m]
283.28 K | 40.07
293.21 K | 39.03
303.32 K | 38.38
313.21 K | 37.65
323.12 K | 36.89
333.1 K | 36.09
343.16 K | 35.31
353.03 K | 34.89

CCCCCC[n+]1ccn(C)c1.N#C[C-](C#N)C#N [3-hexyl-1-methylimidazolium tricyanomethanide]
Settings | surface tension liquid-gas [mN/m]
283.23 K | 44.44
293.35 K | 43.55
303.33 K | 42.88
313.26 K | 42.09
323.25 K | 41.49
333.18 K | 40.8
343.11 K | 39.91
353.53 K | 39.07

CCCCn1cc[n+](C)c1.N#C[B-](C#N)(C#N)C#N [1-butyl-3-methyl-1H-imidazolium tetracyanoborate]
Settings | surface tension liquid-gas [mN/m]
283.23 K | 45.23
293.23 K | 44.64
303.3 K | 43.65
313.24 K | 42.62
323.24 K | 41.71
333.2 K | 40.81
343.22 K | 39.87
353.3 K | 39.08

CCCCCCn1cc[n+](C)c1.N#C[B-](C#N)(C#N)C#N [1-hexyl-3-methylimidazolium tetracyanoborate]
Settings | surface tension liquid-gas [mN/m]
283.27 K | 41.99
293.29 K | 41.32
303.27 K | 40.4
313.29 K | 39.39
323.26 K | 38.6
333.2 K | 37.61
343.18 K | 37
353.25 K | 35.86

CCCCCCCCn1cc[n+](C)c1.N#C[B-](C#N)(C#N)C#N [1-methyl-3-octylimidazolium tetracyanoborate]
Settings | surface tension liquid-gas [mN/m]
283.23 K | 38.64
293.32 K | 38.01
303.3 K | 36.81
313.27 K | 36.18
323.23 K | 35.19
333.18 K | 34.15
343.21 K | 33.44
353.28 K | 32.41

CCn1cc[n+](C)c1.N#C[B-](C#N)(C#N)C#N [1-ethyl-3-methylimidazolium tetracyanoborate]
Settings | surface tension liquid-gas [mN/m]
283.1 K | 49.66
293.26 K | 48.72
303.35 K | 47.57
313.29 K | 46.45
323.2 K | 45.67
333.09 K | 44.87
343.12 K | 44.04
353.45 K | 43.4

Cn1cc[n+](C)c1.N#C[B-](C#N)(C#N)C#N [1,3-dimethylimidazolium tetracyanoborate]
Settings | surface tension liquid-gas [mN/m]
283.19 K | 35.44
293.24 K | 34.74
303.28 K | 33.67
313.26 K | 33.07
323.17 K | 32.05
333.17 K | 31.37
343.13 K | 30.6
353.24 K | 29.98

CCn1cc[n+](C)c1.N#C[C-](C#N)C#N [1-ethyl-3-methyl-1H-imidazolium tricyanomethanide]
Settings | surface tension liquid-gas [mN/m]
283.18 K | 51.1
293.25 K | 50.4
303.24 K | 49.39
313.1 K | 48.62
323.08 K | 47.83
333.17 K | 47.19
343.09 K | 46.55
353.36 K | 44.68
